Calls of active or inactive are those of the source. The rule behind the calls is not given here.
Legend:
[1] = Downregulation of MMP-2 expression in human ES2 cells at 12 uM by Westernblot analysis relative to control; assay type: functional, ES-2
A2780 [2] = assay: Antitumor activity against human A2780 cells xenografted in BALB/c female nude mouse assessed as reduction in EGFR positive cells at 20 mg/kg, ip administrated for 28 days by immunohistochemical analysis; assay type: functional, organism-based; conditions: time 28.0 day
A2780 [3] = assay: Antiproliferative activity against human A2780 cells assessed as decrease in cell viability at 3 to 12 uM by CCK-8 assay; assay type: functional, cell-based; conditions: dose 3-12 µM, TDE = time-dependent effect
A2780 [4] = assay: Downregulation of MMP-2 expression in human A2780 cells by Westernblot analysis; assay type: functional, cell-based
[5] = Toxicity in human A2780 cells xenografted in BALB/c female nude mouse assessed as effect on spleen index at 10 to 20 mg/kg, ip administered on day 24 and measured every other day for 45 days; assay type: organism-based; conditions: in vivo, 1080 h, dose 10-20 mg/kg, time 45 day
[6] = Downregulation of MMP-2 expression in human A2780 cells at 12 uM by Westernblot analysis relative to control; assay type: functional
A2780 [7] = assay: Anticancer activity against human A2780 cells xenografted in BALB/c female nude mouse assessed as decrease in abundance of firmicutes at 10 to 20 mg/kg, ip administrated for 28 days; assay type: functional, organism-based; conditions: dose 10-20 mg/kg, time 28.0 day
ES-2 [8] = assay: Inhibition of cell migration in human ES2 cells assessed as decrease in migration distance at 12 uM incubated for 24 hrs by wound healing assay relative to control; assay type: functional; set-up: scale not given: the % may be the effect or the level left
A2780 [9] = assay: Antiproliferative activity against human A2780 cells assessed as decrease in cell viability at 3 to 12 uM incubated for 24 hrs by crystal violet staining based assay; assay type: functional; conditions: dose 3-12 µM
A2780 [10] = assay: Antitumor activity against human A2780 cells xenografted in BALB/c female nude mouse assessed as disordered tumor cells at 10 to 20 mg/kg, ip administrated for 28 days by HE staining based analysis; assay type: functional, organism-based; conditions: dose 10-20 mg/kg, time 28.0 day
A2780 [11] = assay: Antitumor activity against human A2780 cells xenografted in BALB/c female nude mouse assessed as decrease in tumor growth rate at 10 to 20 mg/kg, ip administered on day 24 and measured every other day for 45 days; assay type: functional, organism-based; conditions: dose 10-20 mg/kg, time 45.0 day
A2780 [12] = assay: Antitumor activity against human A2780 cells xenografted in BALB/c female nude mouse assessed as decrease in tumor weight at 10 to 20 mg/kg, ip administered on day 24 and measured every other day for 45 days; assay type: functional, organism-based; conditions: dose 10-20 mg/kg, time 45.0 day
[13] = Downregulation of EGFR expression in human ES2 cells at 12 uM by Westernblot analysis relative to control; assay type: functional, ES-2
ES-2 [14] = assay: Antiproliferative activity against human ES2 cells assessed as decrease in cell viability at 3 to 12 uM by CCK-8 assay; assay type: functional, cell-based; conditions: dose 3-12 µM, TDE = time-dependent effect
[15] = Downregulation of MMP-9 expression in human ES2 cells at 12 uM by Westernblot analysis relative to control; assay type: functional, ES-2
[16] = Downregulation of MMP-9 expression in human A2780 cells at 12 uM by Westernblot analysis relative to control; assay type: functional
ES-2 [17] = assay: Downregulation of MMP-9 expression in human ES2 cells by Westernblot analysis; assay type: functional, cell-based
A2780 [18] = assay: Antitumor activity against human A2780 cells xenografted in BALB/c female nude mouse assessed as decrease in AKT positive cells at 10 to 20 mg/kg, ip administrated for 28 days by immunohistochemical analysis; assay type: functional, organism-based; conditions: dose 10-20 mg/kg, time 28.0 day
A2780 [19] = assay: Inhibition of cell invasion in human A2780 cells assessed as decrease in invasion rate at 6 uM incubated for 48 hrs by transwell assay; assay type: functional; set-up: scale not given: the % may be the effect or the level left
ES-2 [20] = assay: Antiproliferative activity against human ES2 cells assessed as decrease in cell viability at 3 to 12 uM incubated for 24 hrs by crystal violet staining based assay; assay type: functional; conditions: dose 3-12 µM
A2780 [21] = assay: Antitumor activity against human A2780 cells xenografted in BALB/c female nude mouse assessed as irregular tumor shape at 10 to 20 mg/kg, ip administrated for 28 days by HE staining based analysis; assay type: functional, organism-based; conditions: dose 10-20 mg/kg, time 28.0 day
A2780 [22] = assay: Inhibition of cell invasion in human A2780 cells assessed as decrease in invasion rate at 12 uM incubated for 48 hrs by transwell assay; assay type: functional; set-up: scale not given: the % may be the effect or the level left
ES-2 [23] = assay: Downregulation of AKT expression in human ES2 cells by Westernblot analysis; assay type: functional, cell-based
ES-2 [24] = assay: Antiproliferative activity against human ES2 cells assessed as decrease in cell viability incubated for 24 to 72 hrs by CCK-8 assay; assay type: functional, cell-based; conditions: time 24-72 hrs
ES-2 [25] = assay: Downregulation of MMP-2 expression in human ES2 cells by Westernblot analysis; assay type: functional, cell-based
ES-2 [26] = assay: Inhibition of cell migration in human ES2 cells assessed as decrease in migration distance at 6 uM incubated for 24 hrs by wound healing assay relative to control; assay type: functional; set-up: scale not given: the % may be the effect or the level left
ES-2 [27] = assay: Antiproliferative activity against human ES2 cells assessed as decrease in cell viability at 12 uM incubated for 24 hrs by crystal violet staining based assay relative to control; assay type: functional
A2780 [28] = assay: Antiproliferative activity against human A2780 cells assessed as decrease in cell viability incubated for 24 to 72 hrs by CCK-8 assay; assay type: functional, cell-based; conditions: time 24-72 hrs
A2780 [29] = assay: Inhibition of cell migration in human A2780 cells assessed as decrease in migration distance at 6 uM incubated for 24 hrs by wound healing assay relative to control; assay type: functional; set-up: scale not given: the % may be the effect or the level left
ES-2 [30] = assay: Inhibition of cell invasion in human ES2 cells assessed as decrease in invasion rate at 6 uM incubated for 48 hrs by transwell assay; assay type: functional; set-up: scale not given: the % may be the effect or the level left
A2780 [31] = assay: Inhibition of cell migration in human A2780 cells assessed as decrease in migration distance at 12 uM incubated for 24 hrs by wound healing assay relative to control; assay type: functional; set-up: scale not given: the % may be the effect or the level left
A2780 [32] = assay: Anticancer activity against human A2780 cells xenografted in BALB/c female nude mouse assessed as increase in abundance of alistipes at 10 to 20 mg/kg, ip administrated for 28 days; assay type: functional, organism-based; conditions: dose 10-20 mg/kg, time 28.0 day
A2780 [33] = assay: Downregulation of MMP-9 expression in human A2780 cells by Westernblot analysis; assay type: functional, cell-based
A2780 [34] = assay: Antitumor activity against human A2780 cells xenografted in BALB/c female nude mouse assessed as reduction in cells with hyaline cytoplasm at 10 to 20 mg/kg, ip administrated for 28 days by HE staining based analysis; assay type: functional, organism-based; conditions: dose 10-20 mg/kg, time 28.0 day
A2780 [35] = assay: Antitumor activity against human A2780 cells xenografted in BALB/c female nude mouse assessed as decrease in tumor volume at 10 to 20 mg/kg, ip administered on day 24 and measured every other day for 45 days; assay type: functional, organism-based; conditions: dose 10-20 mg/kg, time 45.0 day
A2780 [36] = assay: Inhibition of cell invasion in human A2780 cells assessed as decrease in invasion rate at 3 uM incubated for 48 hrs by transwell assay; assay type: functional; set-up: scale not given: the % may be the effect or the level left
A2780 [37] = assay: Anticancer activity against human A2780 cells xenografted in BALB/c female nude mouse assessed as increase in intestinal microbial diversity at 10 to 20 mg/kg, ip administrated for 28 days; assay type: functional, organism-based; conditions: dose 10-20 mg/kg, time 28.0 day
ES-2 [38] = assay: Inhibition of cell invasion in human ES2 cells assessed as decrease in invasion rate at 12 uM incubated for 48 hrs by transwell assay; assay type: functional; set-up: scale not given: the % may be the effect or the level left
A2780 [39] = assay: Downregulation of AKT expression in human A2780 cells by Westernblot analysis; assay type: functional, cell-based
ES-2 [40] = assay: Inhibition of cell invasion in human ES2 cells assessed as decrease in invasion rate 3 uM incubated for 48 hrs by transwell assay; assay type: functional; set-up: scale not given: the % may be the effect or the level left
[41] = Toxicity in human A2780 cells xenografted in BALB/c female nude mouse assessed as effect on body weight at 10 to 20 mg/kg, ip administered on day 24 and measured every other day for 45 days; assay type: organism-based; conditions: in vivo, 1080 h, dose 10-20 mg/kg, time 45 day
A2780 [42] = assay: Antiproliferative activity against human A2780 cells assessed as decrease in cell viability at 12 uM incubated for 24 hrs by crystal violet staining based assay relative to control; assay type: functional
A2780 [43] = assay: Inhibition of cell migration in human A2780 cells assessed as decrease in migration distance at 3 uM incubated for 24 hrs by wound healing assay relative to control; assay type: functional; set-up: scale not given: the % may be the effect or the level left
ES-2 [44] = assay: Downregulation of EGFR expression in human ES2 cells by Westernblot analysis; assay type: functional, cell-based
A2780 [45] = assay: Downregulation of EGFR expression in human A2780 cells by Westernblot analysis; assay type: functional, cell-based
A2780 [46] = assay: Antitumor activity against human A2780 cells xenografted in BALB/c female nude mouse assessed as decrease in body weight at 10 to 20 mg/kg, ip administered on day 24 and measured every other day for 45 days; assay type: functional, organism-based; conditions: dose 10-20 mg/kg, time 45.0 day
ES-2 [47] = assay: Inhibition of cell migration in human ES2 cells assessed as decrease in migration distance at 3 uM incubated for 24 hrs by wound healing assay relative to control; assay type: functional; set-up: scale not given: the % may be the effect or the level left
[48] = Downregulation of EGFR expression in human A2780 cells at 12 uM by Westernblot analysis relative to control; assay type: functional

C=C(C)[C@@H]1CCC(C)=C[C@H]1c1c(O)cc(CCCCC)cc1O [CANNABIDIOL]
Activity [1]: 77% | Activity (A2780 [2]): Active | Activity (A2780 [3]): Tde | Activity (A2780 [4]): Dose-Dependent Effect | Activity [5]: Non-Toxic | Activity [6]: 77% | Activity (A2780 [7]): Active | Activity (ES-2 [8]): 26% | Activity (A2780 [9]): Dose-Dependent Effect | Activity (A2780 [10]): Active | Activity (A2780 [11]): Active | Activity (A2780 [12]): Active | Activity [13]: 79% | Activity (ES-2 [14]): Tde | Activity [15]: 81% | Activity [16]: 77% | Activity (ES-2 [17]): Dose-Dependent Effect | Activity (A2780 [18]): Active | Activity (A2780 [19]): 56% | Activity (ES-2 [20]): Dose-Dependent Effect | Activity (A2780 [21]): Active | Activity (A2780 [22]): 61% | Activity (ES-2 [23]): Dose-Dependent Effect | Activity (ES-2 [24]): Dose-Dependent Effect | Activity (ES-2 [25]): Dose-Dependent Effect | Activity (ES-2 [26]): 53% | Activity (ES-2 [27]): 24% | Activity (A2780 [28]): Dose-Dependent Effect | Activity (A2780 [29]): 62% | Activity (ES-2 [30]): 39% | Activity (A2780 [31]): 52% | Activity (A2780 [32]): Active | Activity (A2780 [33]): Dose-Dependent Effect | Activity (A2780 [34]): Active | Activity (A2780 [35]): Active | Activity (A2780 [36]): 71% | Activity (A2780 [37]): Active | Activity (ES-2 [38]): 32% | Activity (A2780 [39]): Dose-Dependent Effect | Activity (ES-2 [40]): 80% | Activity [41]: Non-Toxic | Activity (A2780 [42]): 27% | Activity (A2780 [43]): 75% | Activity (ES-2 [44]): Dose-Dependent Effect | Activity (A2780 [45]): Dose-Dependent Effect | Activity (A2780 [46]): Active | Activity (ES-2 [47]): 73% | Activity [48]: 58%
